Source: patent US20260365670A1, “EGFR INHIBITORS AND USES THEREOF” (DIZAL (JIANGSU) PHARMACEUTICAL CO., LTD., priority 2022, published 2026)
Where two headings read alike, the source gives them in different places.

Assays:
EGFR L858R = target: T1, EGFR L858R (Homo sapiens, UniProt P00533, L858R); assay: Inhibition of EGFR L858R biochemical enzymatic activity (HTRF); settings: 1 mM ATP, 1 h, room temperature, read-out: IC50 (nM) @L858R
T1 construct: purchased Carna Bio
Procedure, shortened: (§1)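 For IC50 determination by four-parameter logistic fit, EDTA-quenched 1 h room-temperature reactions (1 mM ATP, 1 μM TK Substrate-biotin) were read by HTRF. The 665/615 nm emission ratio after 320 nm excitation served as the activity signal.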

EGFR (d746-750 C797S) = target: T2, EGFR (d746-750 C797S) (Homo sapiens, UniProt P00533, C797S/DEL746-750); assay: Inhibition of EGFR (d746-750 C797S) biochemical enzymatic activity (HTRF); settings: EGFR Del19-C797S, 1 mM ATP, 1 h, room temperature, read-out: IC50 (nM) @Del19-C797S
T2 construct: purchased signalchem
Procedure, shortened: as §1

[1] = target: T3, EGFR[T790M/C797S/d746-750] (Homo sapiens, UniProt P00533, C797S/DEL746-750/T790M); assay: Inhibition of EGFR[T790M/C797S/d746-750] biochemical enzymatic activity (HTRF); settings: EGFR T790M-C797S-Del19, 1 mM ATP, 1 h, room temperature, read-out: IC50 (nM) @T790M - C797S - Del19
T3 construct: purchased Carna Bio
Procedure, shortened: as §1

PC-9 = assay: Cell proliferation assay, PC-9 cells (CellTiter-Glo, 72 hours); assay type: cell-based; settings: Homo sapiens, PC-9, 72 h, PC9 cells, read-out: GI50 PC9
Procedure, shortened: (§2)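 Ba/F3 cells carrying EGFR mutants (5000/well) or PC-9 cells (500/well) in RPMI1640 were dosed with compound series after overnight attachment and grown 72 h. Viability read by CellTiter-Glo, with day-0 counts subtracted; GI50 from curve fits of % proliferation versus DMSO control.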

EGFR (C797S L858R) = target: T4, EGFR (C797S L858R) (Homo sapiens, UniProt P00533, C797S/L858R); assay: Inhibition of EGFR (C797S L858R) biochemical enzymatic activity (HTRF); settings: EGFR L858-C797S, 1 mM ATP, 1 h, room temperature, read-out: IC50 (nM) @L858-C797S
T4 construct: purchased signalchem
Procedure, shortened: as §1

A-431 = assay: Cell proliferation assay, A-431 cells (GI50, Table 6); assay type: cell-based; settings: Homo sapiens, A-431, A-431 cells
EGFR wild type = target: T5, EGFR wild type (Homo sapiens, UniProt P00533); assay: Inhibition of EGFR wild type biochemical enzymatic activity (HTRF); settings: EGFR WT, 1 mM ATP, 1 h, room temperature, read-out: IC50 (nM) @WT
T5 construct: purchased Carna Bio
Procedure, shortened: as §1

EGFR Exon19Del/T790M = target: T6, EGFR Exon19Del/T790M (Homo sapiens, UniProt P00533, DEL746-750/T790M); assay: Inhibition of EGFR Exon19Del/T790M biochemical enzymatic activity (HTRF); settings: EGFR Del19-T790M, 1 mM ATP, 1 h, room temperature, read-out: IC50 (nM) @Del19-T790M
T6 construct: purchased Carna Bio
Procedure, shortened: as §1

EGFR[T790M/C797S/L858R] = target: T7, EGFR[T790M/C797S/L858R] (Homo sapiens, UniProt P00533, C797S/L858R/T790M); assay: Inhibition of EGFR[T790M/C797S/L858R] biochemical enzymatic activity (HTRF); settings: EGFR T790M-C797S-L858R, 1 mM ATP, 1 h, room temperature, read-out: IC50 (nM) @T790M- C797S - L858R
T7 construct: purchased Carna Bio
Procedure, shortened: as §1

EGFR Exon19Del = target: T8, EGFR Exon19Del (Homo sapiens, UniProt P00533, DEL746-750); assay: Inhibition of EGFR Exon19Del biochemical enzymatic activity (HTRF); settings: EGFR Del19, 1 mM ATP, 1 h, room temperature, read-out: IC50 @Del19
T8 construct: purchased Carna Bio
Procedure, shortened: as §1

EGFR L858R/T790M = target: T9, EGFR L858R/T790M (Homo sapiens, UniProt P00533, L858R/T790M); assay: Inhibition of EGFR L858R/T790M biochemical enzymatic activity (HTRF); settings: EGFR L858R-T790M, 1 mM ATP, 1 h, room temperature, read-out: IC50 (nM) @L858R-T790M
T9 construct: purchased Carna Bio
Procedure, shortened: as §1

[2] = test system: Ba/F3 cells expressing EGFR mutations; assay: Cell proliferation assay, Ba/F3 cells expressing EGFR mutations (CellTiter-Glo, 72 hours); assay type: cell-based; settings: Mus musculus, BaF3, 72 h
Procedure, shortened: as §2

[3] = BaF3 cells, EGFR DEL19 - C797S, read-out: GI50 DEL19 - C797S/BaF3
[4] = BaF3 cells, EGFR DEL19 - T790-C797S, read-out: GI50 DEL19 - T790-C797S/BaF3
[5] = BaF3 cells, EGFR L858R - C797S, read-out: GI50 L858R - C797S/BaF3
[6] = BaF3 cells, EGFR L858R - T790-C797S, read-out: GI50 L858R - T790-C797S/BaF3
[7] = BaF3 cells, EGFR L858R - T790M, read-out: GI50 L858R - T790M/BaF3
[8] = BaF3 cells, EGFR L858R, read-out: GI50 L858R/BaF3
[9] = EGFR DEL19 - T790M, read-out: GI50 DEL19 - T790M

T9 sequence (P00533 25-1210 T790M/L858R): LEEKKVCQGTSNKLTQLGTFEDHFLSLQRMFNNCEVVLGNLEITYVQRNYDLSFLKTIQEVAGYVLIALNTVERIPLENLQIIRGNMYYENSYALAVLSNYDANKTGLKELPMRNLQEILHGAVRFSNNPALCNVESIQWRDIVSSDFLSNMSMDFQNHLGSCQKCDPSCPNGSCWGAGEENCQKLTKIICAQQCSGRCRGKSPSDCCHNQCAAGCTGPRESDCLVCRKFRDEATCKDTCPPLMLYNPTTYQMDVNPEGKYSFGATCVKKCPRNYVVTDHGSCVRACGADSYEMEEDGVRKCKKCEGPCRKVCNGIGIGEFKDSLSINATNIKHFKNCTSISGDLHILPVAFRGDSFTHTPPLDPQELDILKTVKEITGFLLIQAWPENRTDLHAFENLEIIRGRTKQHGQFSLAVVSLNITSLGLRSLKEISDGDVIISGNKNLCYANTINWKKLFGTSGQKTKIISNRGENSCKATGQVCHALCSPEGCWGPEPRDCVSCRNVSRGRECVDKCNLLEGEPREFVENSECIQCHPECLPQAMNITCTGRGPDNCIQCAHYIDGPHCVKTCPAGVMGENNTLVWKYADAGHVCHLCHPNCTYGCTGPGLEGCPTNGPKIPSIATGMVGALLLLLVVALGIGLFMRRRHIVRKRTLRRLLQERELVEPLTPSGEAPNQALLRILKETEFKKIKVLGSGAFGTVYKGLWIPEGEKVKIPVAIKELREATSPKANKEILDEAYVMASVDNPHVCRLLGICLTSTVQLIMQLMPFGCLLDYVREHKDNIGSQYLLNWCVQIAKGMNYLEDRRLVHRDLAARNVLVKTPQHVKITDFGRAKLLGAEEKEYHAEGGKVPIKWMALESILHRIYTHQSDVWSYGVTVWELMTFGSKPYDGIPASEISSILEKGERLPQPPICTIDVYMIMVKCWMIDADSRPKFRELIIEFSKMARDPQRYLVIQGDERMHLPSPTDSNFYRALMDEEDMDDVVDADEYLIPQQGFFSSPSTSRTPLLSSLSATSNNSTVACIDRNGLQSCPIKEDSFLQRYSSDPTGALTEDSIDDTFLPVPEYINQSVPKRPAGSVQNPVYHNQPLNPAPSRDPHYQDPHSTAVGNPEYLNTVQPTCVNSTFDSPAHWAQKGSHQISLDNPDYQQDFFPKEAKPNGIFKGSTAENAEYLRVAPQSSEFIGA
T3 sequence (P00533 with tags, fused parts or gaps DEL746-750/T790M/C797S limits assumed): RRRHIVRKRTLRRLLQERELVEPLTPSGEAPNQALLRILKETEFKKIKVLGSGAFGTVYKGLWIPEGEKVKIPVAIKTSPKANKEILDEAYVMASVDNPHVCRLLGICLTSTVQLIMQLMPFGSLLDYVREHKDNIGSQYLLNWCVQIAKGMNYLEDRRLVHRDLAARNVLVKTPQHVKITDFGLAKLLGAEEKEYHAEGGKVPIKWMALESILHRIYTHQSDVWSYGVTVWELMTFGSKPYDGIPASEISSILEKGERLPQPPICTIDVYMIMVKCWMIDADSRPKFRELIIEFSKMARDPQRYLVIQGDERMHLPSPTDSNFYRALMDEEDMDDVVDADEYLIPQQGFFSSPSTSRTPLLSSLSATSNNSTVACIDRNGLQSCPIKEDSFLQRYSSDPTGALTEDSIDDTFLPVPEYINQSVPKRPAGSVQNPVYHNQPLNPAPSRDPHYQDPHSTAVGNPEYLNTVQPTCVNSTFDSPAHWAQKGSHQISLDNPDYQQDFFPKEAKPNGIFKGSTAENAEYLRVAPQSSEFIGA
T8 sequence (P00533 with tags, fused parts or gaps DEL746-750 limits assumed): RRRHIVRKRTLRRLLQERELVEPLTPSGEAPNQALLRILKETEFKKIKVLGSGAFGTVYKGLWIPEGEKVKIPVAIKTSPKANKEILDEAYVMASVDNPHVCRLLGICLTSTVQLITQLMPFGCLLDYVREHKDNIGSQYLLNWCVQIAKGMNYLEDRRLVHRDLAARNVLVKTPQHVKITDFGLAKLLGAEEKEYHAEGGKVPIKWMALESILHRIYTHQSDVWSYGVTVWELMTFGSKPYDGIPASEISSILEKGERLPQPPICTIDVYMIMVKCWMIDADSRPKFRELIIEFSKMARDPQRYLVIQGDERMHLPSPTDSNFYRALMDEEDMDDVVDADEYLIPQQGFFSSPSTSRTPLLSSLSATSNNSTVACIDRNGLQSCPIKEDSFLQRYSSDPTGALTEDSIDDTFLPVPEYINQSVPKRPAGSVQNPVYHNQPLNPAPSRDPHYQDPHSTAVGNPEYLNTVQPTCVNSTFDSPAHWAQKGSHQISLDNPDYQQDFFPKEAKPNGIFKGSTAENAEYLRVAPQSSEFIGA
T6 sequence (P00533 with tags, fused parts or gaps DEL746-750/T790M limits assumed): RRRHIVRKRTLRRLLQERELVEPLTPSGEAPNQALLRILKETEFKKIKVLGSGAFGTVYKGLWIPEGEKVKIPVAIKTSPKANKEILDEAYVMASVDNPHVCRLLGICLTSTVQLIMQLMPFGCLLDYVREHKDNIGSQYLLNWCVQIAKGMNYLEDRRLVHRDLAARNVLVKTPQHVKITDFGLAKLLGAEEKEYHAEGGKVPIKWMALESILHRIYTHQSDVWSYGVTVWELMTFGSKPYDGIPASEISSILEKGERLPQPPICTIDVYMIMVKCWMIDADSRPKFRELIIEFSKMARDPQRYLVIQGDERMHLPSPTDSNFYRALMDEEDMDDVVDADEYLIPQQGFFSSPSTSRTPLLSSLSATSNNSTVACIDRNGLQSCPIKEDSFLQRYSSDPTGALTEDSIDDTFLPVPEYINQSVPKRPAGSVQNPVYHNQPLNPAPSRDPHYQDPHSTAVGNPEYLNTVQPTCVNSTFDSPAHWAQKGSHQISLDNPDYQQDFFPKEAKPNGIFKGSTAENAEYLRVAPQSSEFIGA
T1 sequence (P00533 25-1210 L858R): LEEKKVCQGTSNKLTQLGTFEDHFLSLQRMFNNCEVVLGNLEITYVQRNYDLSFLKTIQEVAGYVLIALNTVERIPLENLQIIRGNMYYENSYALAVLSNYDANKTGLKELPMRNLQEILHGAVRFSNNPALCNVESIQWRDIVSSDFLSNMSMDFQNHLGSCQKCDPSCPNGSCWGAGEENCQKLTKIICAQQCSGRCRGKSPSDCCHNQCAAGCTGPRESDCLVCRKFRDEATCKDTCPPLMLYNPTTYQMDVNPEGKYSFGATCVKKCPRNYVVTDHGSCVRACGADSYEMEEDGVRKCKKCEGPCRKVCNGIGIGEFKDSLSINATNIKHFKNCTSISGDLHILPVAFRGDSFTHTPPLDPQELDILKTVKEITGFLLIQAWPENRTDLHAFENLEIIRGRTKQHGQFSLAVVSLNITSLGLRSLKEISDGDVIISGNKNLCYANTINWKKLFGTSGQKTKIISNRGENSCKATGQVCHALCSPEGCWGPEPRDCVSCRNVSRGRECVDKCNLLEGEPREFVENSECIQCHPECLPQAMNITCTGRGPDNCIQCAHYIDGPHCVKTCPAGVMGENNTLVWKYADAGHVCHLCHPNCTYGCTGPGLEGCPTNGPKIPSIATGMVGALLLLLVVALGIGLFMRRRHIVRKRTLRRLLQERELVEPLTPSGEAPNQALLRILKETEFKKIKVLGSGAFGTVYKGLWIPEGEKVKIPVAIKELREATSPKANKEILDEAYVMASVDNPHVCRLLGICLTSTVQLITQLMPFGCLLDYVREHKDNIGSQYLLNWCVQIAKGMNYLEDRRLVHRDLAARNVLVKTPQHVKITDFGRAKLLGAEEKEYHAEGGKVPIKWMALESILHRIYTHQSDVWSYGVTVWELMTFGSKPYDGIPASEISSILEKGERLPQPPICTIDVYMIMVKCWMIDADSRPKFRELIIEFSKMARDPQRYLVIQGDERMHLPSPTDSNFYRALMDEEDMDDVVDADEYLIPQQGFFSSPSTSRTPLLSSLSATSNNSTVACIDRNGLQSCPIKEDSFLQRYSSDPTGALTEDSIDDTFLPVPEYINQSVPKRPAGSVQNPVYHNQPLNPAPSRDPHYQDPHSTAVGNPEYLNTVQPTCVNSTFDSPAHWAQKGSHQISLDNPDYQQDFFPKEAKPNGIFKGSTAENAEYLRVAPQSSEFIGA
T2 sequence (P00533 with tags, fused parts or gaps DEL746-750/C797S limits assumed): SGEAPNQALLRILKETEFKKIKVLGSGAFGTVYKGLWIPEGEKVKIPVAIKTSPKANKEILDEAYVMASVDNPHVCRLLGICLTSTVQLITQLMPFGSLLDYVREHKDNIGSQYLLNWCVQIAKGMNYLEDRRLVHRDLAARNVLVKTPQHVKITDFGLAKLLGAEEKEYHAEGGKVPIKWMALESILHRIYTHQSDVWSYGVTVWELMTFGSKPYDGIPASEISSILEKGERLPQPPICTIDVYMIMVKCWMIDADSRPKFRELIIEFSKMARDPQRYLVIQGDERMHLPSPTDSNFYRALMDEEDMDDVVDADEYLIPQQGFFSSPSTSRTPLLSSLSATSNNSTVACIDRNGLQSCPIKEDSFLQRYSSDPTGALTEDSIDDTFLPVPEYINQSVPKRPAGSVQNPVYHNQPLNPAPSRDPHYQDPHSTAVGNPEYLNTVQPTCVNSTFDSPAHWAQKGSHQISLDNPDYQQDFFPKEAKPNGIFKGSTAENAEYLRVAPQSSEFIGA

CN1CCN(c2ccc3nc4n(c3c2)C(C)(C)CCCCOc2c(cnn2C)-c2cc(cn(C)c2=O)C(=O)N4)CC1 [Example A112, 5,12,12,26-Tetramethyl-16-(4-methylpiperazin-1-yl)-7-oxa-4,5,13,20,22,26-hexaazapentacyclo[22.3.1.0^{2,6}.0^{13,21}.0^{14,19}]octacosa-1(28),2(6),3,14,16,18,20,24-octaene-23,27-dione]
IC50 (EGFR L858R): 198 nM
IC50 (EGFR (d746-750 C797S)): 6.6 nM
IC50 [1]: 12 nM
GI50 (PC-9): 45 nM
IC50 (EGFR (C797S L858R)): 60 nM
GI50 (A-431): 3590 nM
IC50 (EGFR wild type): > 5000 nM
IC50 (EGFR Exon19Del/T790M): 15 nM
IC50 (EGFR[T790M/C797S/L858R]): 52 nM
IC50 (EGFR Exon19Del): 8.5 nM
IC50 (EGFR L858R/T790M): 133 nM
GI50 [2, 3]: 4.5 nM
GI50 [2, 4]: 70 nM
GI50 [2, 5]: 47 nM
GI50 [2, 6]: 64 nM
GI50 [2, 7]: 37 nM
GI50 [2, 8]: 89 nM
GI50 [2, 9]: 105 nM

CN1CC2CN(c3ccc4nc5n(c4c3)C34CCC(CC3)CN(CCOc3c(cnn3C)-c3cc(cn(C)c3=O)C(=O)N5)C4)CC2C1 (stereo not drawn) [Example A126]
IC50 (EGFR L858R): 95 nM
IC50 (EGFR (d746-750 C797S)): 9.9 nM
IC50 [1]: 8.9 nM
GI50 (PC-9): 34 nM
IC50 (EGFR (C797S L858R)): 71 nM
GI50 (A-431): 4090 nM
IC50 (EGFR wild type): > 5000 nM
IC50 (EGFR Exon19Del/T790M): 12 nM
IC50 (EGFR[T790M/C797S/L858R]): 52 nM
IC50 (EGFR Exon19Del): 13 nM
IC50 (EGFR L858R/T790M): 169 nM
GI50 [2, 3]: 7.3 nM
GI50 [2, 4]: 36 nM
GI50 [2, 5]: 29 nM
GI50 [2, 6]: 18 nM
GI50 [2, 7]: 50 nM
GI50 [2, 8]: 5.5 nM
GI50 [2, 9]: 26 nM
